Earlier results, collected in patent US8652520B2, “Combination tablet with chewable outer layer” (Vitalis LLC, priority 2007, dated 2014).

How the values were obtained:
[1] = risk of bleeding peptic ulcer, literature
[2] = test system: anti-platelet activity of aspirin; conditions: co-administered with aspirin, literature

SMILES	GI side effects among the NSAID agents [1]	anti-platelet activity of aspirin when given in conjunction [2]
O=C(O)Cc1ccccc1Nc1c(Cl)cccc1Cl [diclofenac]	least GI side effects	–
CC(C)Cc1ccc(C(C)C(=O)O)cc1 (stereo not drawn) [ibuprofen, 2-[4-(2-methylpropyl)phenyl]propanoic acid]	least GI side effects	decreased
